Laboratory results: ChEMBL document CHEMBL5634077, “Recent advances in 1,2,3- and 1,2,4-triazole hybrids as antimicrobials and their SAR: A critical review” (2023)
Values after ≈ are worked out from the molar mass of the structure shown.

What was measured:
Format in all cases: functional
[1] = test system: Escherichia coli; experiment: Antibacterial activity against Escherichia coli assessed as reduction in bacterial growth by broth microdilution method
[2] = test system: Staphylococcus aureus; experiment: Antibacterial activity against Staphylococcus aureus assessed as reduction in bacterial growth by broth microdilution method
[3] = test system: Pseudomonas aeruginosa; experiment: Antibacterial activity against Pseudomonas aeruginosa NCIM 2036 assessed as reduction in bacterial growth incubated for 18 to 24 hrs by broth microdilution method; conditions: time 18-24 hrs
[4] = test system: Bacillus subtilis; experiment: Antibacterial activity against Bacillus subtilis NCIM 2063 assessed as reduction in bacterial growth incubated for 18 to 24 hrs by broth microdilution method; conditions: time 18-24 hrs
[5] = test system: Proteus mirabilis; experiment: Antibacterial activity against Proteus mirabilis NCIM 2241 assessed as reduction in bacterial growth incubated for 18 to 24 hrs by broth microdilution method; conditions: time 18-24 hrs
[6] = test system: Staphylococcus aureus; experiment: Antibacterial activity against Staphylococcus aureus NCIM 2079 assessed as reduction in bacterial growth incubated for 18 to 24 hrs by broth microdilution method; conditions: time 18-24 hrs
[7] = test system: Bacillus cereus; experiment: Antibacterial activity against Bacillus cereus NCIM 2156 assessed as reduction in bacterial growth incubated for 18 to 24 hrs by broth microdilution method; conditions: time 18-24 hrs
[8] = test system: Escherichia coli; experiment: Antibacterial activity against Escherichia coli NCIM 2065 assessed as reduction in bacterial growth incubated for 18 to 24 hrs by broth microdilution method; conditions: time 18-24 hrs
[9] = test system: Proteus vulgaris; experiment: Antibacterial activity against Proteus vulgaris NCIM 2027 assessed as reduction in bacterial growth incubated for 18 to 24 hrs by broth microdilution method; conditions: time 18-24 hrs
[10] = test system: Bacillus cereus; experiment: Antibacterial activity against Bacillus cereus NCIM-2156 by CLSI based microdilution assay
[11] = test system: Proteus vulgaris; experiment: Antibacterial activity against Proteus vulgaris NCIM-2027 by CLSI based microdilution assay
[12] = test system: Bacillus subtilis; experiment: Antibacterial activity against Bacillus subtilis NCIM-2063 by CLSI based microdilution assay
[13] = test system: Staphylococcus aureus; experiment: Antibacterial activity against Staphylococcus aureus NCIM-2079 by CLSI based microdilution assay
[14] = test system: Escherichia coli; experiment: Antibacterial activity against Escherichia coli NCIM-2065 by CLSI based microdilution assay
[15] = test system: Bacillus subtilis; experiment: Antibacterial activity against Bacillus subtilis MTTC 441 assessed as reduction in bacterial growth
[16] = test system: Staphylococcus aureus; experiment: Antibacterial activity against Staphylococcus aureus MTCC 3160 assessed as reduction in bacterial growth
[17] = test system: Candida parapsilosis; experiment: Antifungal activity against Candida parapsilosis IFRC 1269 assessed as reduction in fungal growth by CLSI based micro-dilution asssay; conditions: Lodderomyces parapsilosis
[18] = test system: Candida tropicalis; experiment: Antifungal activity against Candida tropicalis IFRC 1057 assessed as reduction in fungal growth by CLSI based micro-dilution asssay
[19] = test system: Nakaseomyces glabratus; experiment: Antifungal activity against Candida glabrata assessed as reduction in fungal growth by CLSI based micro-dilution asssay
[20] = test system: Pichia kudriavzevii; experiment: Antifungal activity against Candida krusei IFRC 1012 assessed as reduction in fungal growth by CLSI based micro-dilution asssay
[21] = test system: Candida albicans; experiment: Antifungal activity against Candida albicans IFRC 194 assessed as reduction in fungal growth by CLSI based micro-dilution asssay
[22] = test system: Nakaseomyces glabratus; experiment: Antifungal activity against Candida glabrata 537 assessed as reduction in fungal growth incubated for 72 hrs by NCCLS based assay
[23] = test system: Candida albicans; experiment: Antifungal activity against Candida albicans Y0109 assessed as reduction in fungal growth incubated for 24 hrs by NCCLS based assay
[24] = test system: Cryptococcus neoformans; experiment: Antifungal activity against Cryptococcus neoformans assessed as fungal growth inhibition by CLSI based method
[25] = test system: Candida albicans; experiment: Antifungal activity against Candida albicans MTCC 227 assessed as inhibition of fungal growth
[26] = test system: Nannizzia gypsea; experiment: Antifungal activity against Microsporum gypseum assessed as reduction in fungal growth incubated for 5 to 7 days by NCCLS based assay; conditions: time 5-7 day
[27] = test system: Aspergillus fumigatus; experiment: Antifungal activity against Aspergillus fumigatus 7544 assessed as reduction in fungal growth incubated for 5 to 7 days by NCCLS based assay; conditions: time 5-7 day
[28] = test system: Aspergillus niger; experiment: Antifungal activity against Aspergillus niger assessed as fungal growth inhibition
[29] = test system: Aspergillus fumigatus; experiment: […] activity against Aspergillus fumigatus NCIM 2081 assessed as reduction in […] by micro-broth dilution method
[30] = test system: Cryptococcus neoformans; experiment: Antifungal activity against Cryptococcus neoformans 32609 assessed as reduction in fungal growth incubated for 72 hrs by NCCLS based assay
[31] = test system: Candida albicans; experiment: Antifungal activity against Candida albicans assessed as fungal growth inhibition by CLSI based method
[32] = test system: Candida albicans; experiment: Antifungal activity against Candida albicans SC5314 assessed as reduction in fungal growth incubated for 24 hrs by NCCLS based assay
[33] = test system: Trichophyton rubrum; experiment: Antifungal activity against Trichophyton rubrum assessed as reduction in fungal growth incubated for 5 to 7 days by NCCLS based assay; conditions: time 5-7 day
[34] = test system: Aspergillus niger; experiment: […] activity against Aspergillus niger NCIM 2191 assessed as reduction in […] by micro-broth dilution method
[35] = test system: Candida albicans; experiment: Antifungal activity against Candida albicans NCIM 2087 assessed as fungal growth inhibition
[36] = test system: Staphylococcus aureus; experiment: Antibacterial activity against Staphylococcus aureus ATCC 6538P
[37] = test system: Escherichia coli; experiment: Antibacterial activity against Escherichia coli ATCC 8739
[38] = test system: Pseudomonas aeruginosa; experiment: Antibacterial activity against Pseudomonas aeruginosa ATCC 9027
[39] = test system: Staphylococcus aureus; experiment: Antibacterial activity against Staphylococcus aureus assessed as inhibition of bacterial growth
[40] = test system: Pseudomonas aeruginosa; experiment: Antibacterial activity against Pseudomonas aeruginosa assessed as reduction in bacterial growth
[41] = test system: Bacillus subtilis; experiment: Antibacterial activity against Bacillus subtilis assessed as reduction in bacterial growth
[42] = test system: Klebsiella pneumoniae; experiment: Antibacterial activity against Klebsiella pneumoniae assessed as inhibition of bacterial growth
[43] = test system: Staphylococcus aureus; experiment: Antibacterial activity against Staphylococcus aureus

With `CC(C)Cc1ccc(C(C)C(=O)NC(Cc2cn(Cc3cn(CC(=O)Nc4ccccc4[N+](=O)[O-])nn3)c3ccccc23)C(=O)NC(Cc2ccccc2)C(N)=O)cc1` (stereo not given) the MIC [1] was 25 µg/mL (≈ 31.3 µM).

Work on `CC(C)Cc1ccc(C(C)C(=O)NC(Cc2cn(Cc3cn(CC(=O)Nc4ccccc4Cl)nn3)c3ccccc23)C(=O)NC(Cc2ccccc2)C(N)=O)cc1` (stereo not given) yielded an MIC [2] of 25 µg/mL (≈ 31.8 µM).

In the case of `CC(=O)NCn1nc(NCCCNc2ccnc3cc(Cl)ccc23)n(N)c1=S`, the MIC [3] is reported as 25 µg/mL (≈ 59.4 µM), the MIC [4] is reported as 12.5 µg/mL (≈ 29.7 µM) and the MIC [5] is reported as 12.5 µg/mL (≈ 29.7 µM). For the same compound, the MIC [6] was 6.25 µg/mL (≈ 14.8 µM), the MIC [7] was 6.25 µg/mL (≈ 14.8 µM) and the MIC [8] was 12.5 µg/mL (≈ 29.7 µM). It also gave an MIC [9] of 12.5 µg/mL (≈ 29.7 µM).

Compound `O=C(CNN1C(=O)CSC1c1ccc(-c2ccc(F)cc2)cc1)NN1C(c2ccc([N+](=O)[O-])cc2)=NNC1S` (stereo not given) has an MIC [10] of 3.12 µg/mL (≈ 5.51 µM), an MIC [11] of 3.12 µg/mL (≈ 5.51 µM) and an MIC [12] of 3.12 µg/mL (≈ 5.51 µM). It also gave an MIC [13] of 3.12 µg/mL (≈ 5.51 µM) and an MIC [14] of 3.12 µg/mL (≈ 5.51 µM).

`Cc1ccc(NC(=O)Cn2cc(Cn3cc(CC(NC(=O)C(C)c4ccc(CC(C)C)cc4)C(=O)NC(Cc4ccccc4)C(N)=O)c4ccccc43)nn2)c(C)c1` (stereo not given) gave an MIC [1] of 25 µg/mL (≈ 32 µM).

`O=C(CNN1C(=O)CSC1c1ccc(-c2ccc(F)cc2)cc1)NN1C(c2ccncc2)=NNC1S` (stereo not given) showed an MIC [10] of 3.12 µg/mL (≈ 5.97 µM), an MIC [11] of 3.12 µg/mL (≈ 5.97 µM) and an MIC [12] of 3.12 µg/mL (≈ 5.97 µM). The MIC [13] was 3.12 µg/mL (≈ 5.97 µM) and the MIC [14] was 3.12 µg/mL (≈ 5.97 µM).

`O=C(Cn1cc(COc2cccc(/C=N/c3ccc(F)cc3)c2)nn1)Nc1ccc(Br)cc1` gave an MIC [15] of 12 µM (≈ 6.1 µg/mL) and an MIC [16] of 6 µM (≈ 3.05 µg/mL).

`OC(CSC(=S)N1CCN(Cc2ccc(Cl)cc2)CC1)(Cn1cncn1)c1ccc(F)cc1F` (stereo not given) showed an MIC [17] of 0.063 µg/mL (≈ 0.12 µM), an MIC [18] of 0.063 µg/mL (≈ 0.12 µM) and an MIC [19] of 0.063 µg/mL (≈ 0.12 µM). The MIC [20] was 0.063 µg/mL (≈ 0.12 µM) and the MIC [21] was 0.063 µg/mL (≈ 0.12 µM).

With `OC(Cn1cncn1)(Cn1cncn1)c1ccc(F)cc1F` [FLUCONAZOLE] the MIC80 [22] was 2 µg/mL (≈ 6.53 µM), the MIC [17] was 0.5 µg/mL (≈ 1.63 µM) and the MIC80 [23] was 0.25 µg/mL (≈ 0.816 µM). For the same compound, the MIC [18] was 0.5 µg/mL (≈ 1.63 µM), the MIC [24] was 4 µg/mL (≈ 13.1 µM) and the MIC [25] was 40 µM (≈ 12.3 µg/mL). For the same compound, the MIC80 [26] was 32 µg/mL (≈ 104 µM), the MIC [19] was 0.5 µg/mL (≈ 1.63 µM) and the MIC80 [27] was > 64 µg/mL. It also gave an MIC [28] of 20.4 µg/mL (≈ 66.6 µM), an MIC [29] of 16 µg/mL (≈ 52.2 µM) and an MIC80 [30] of 1 µg/mL (≈ 3.27 µM). It also gave an MIC [31] of 4 µg/mL (≈ 13.1 µM), an MIC80 [32] of 0.5 µg/mL (≈ 1.63 µM) and an MIC80 [33] of 8 µg/mL (≈ 26.1 µM). The MIC [16] was 40 µM (≈ 12.3 µg/mL), the MIC [20] was 0.5 µg/mL (≈ 1.63 µM) and the MIC [34] was 4 µg/mL (≈ 13.1 µM). For the same compound, the MIC [21] was 0.5 µg/mL (≈ 1.63 µM) and the MIC [35] was 1 µg/mL (≈ 3.27 µM).

`CCn1cc(C(=O)O)c(=O)c2cc(F)c(N3CCN(Cn4nc(-c5ccncc5)n(-c5ccc(OC)cc5)c4=S)CC3)cc21` was tested, and the MIC [36] was 0.125 µg/mL (≈ 0.203 µM), the MIC [37] was 0.125 µg/mL (≈ 0.203 µM) and the MIC [38] was 0.125 µg/mL (≈ 0.203 µM).

`O=C(O)c1cn(C2CC2)c2cc(N3CCNCC3)c(F)cc2c1=O` [CIPROFLOXACIN] gave an MIC [4] of 12.5 µg/mL (≈ 37.7 µM), an MIC [5] of 12.5 µg/mL (≈ 37.7 µM) and an MIC [39] of 8 µg/mL (≈ 24.1 µM). It also gave an MIC [40] of 18 µg/mL (≈ 54.3 µM), an MIC [41] of 18 µg/mL (≈ 54.3 µM) and an MIC [7] of 3.12 µg/mL (≈ 9.43 µM). For the same compound, the MIC [42] was 16 µg/mL (≈ 48.3 µM), the MIC [43] was 9 µM (≈ 2.98 µg/mL) and the MIC [16] was 9 µM (≈ 2.98 µg/mL). For the same compound, the MIC [9] was 12.5 µg/mL (≈ 37.7 µM).
